# Reference: PubChem BioAssay (NCI)
#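 Grown in 96-well plates, cells were treated for 48 hours with each compound at five concentrations. Insufficient inhibition: endpoint recorded as highest concentration tested. GI50 is the concentration that inhibits growth by half. TGI: concentration producing complete growth inhibition.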
# How the values were obtained:
# Assay in all cases: NCI-60 cell line screen, 48 h
# [1] = test system: HOP-62 NSCLC
# [2] = test system: SF-268 CNS
# [3] = test system: SK-MEL-28 melanoma
# [4] = test system: CAKI-1 renal
# [5] = test system: HT29 colon
# [6] = test system: HCT-116 colon
# [7] = test system: RXF 393 renal
# [8] = test system: ACHN renal
# [9] = test system: KM12 colon
# [10] = test system: NCI/ADR-RES ovarian
Structure (SMILES),TGI [1] [µM],TGI [2] [µM],TGI [3] [µM],TGI [4] [µM],TGI [5] [µM],TGI [6] [µM],TGI [7] [µM],TGI [8] [µM],TGI [9] [µM],GI50 [1] [µM],GI50 [2] [µM],GI50 [3] [µM],GI50 [4] [µM],GI50 [10] [µM],TGI [10] [µM],GI50 [7] [µM],GI50 [8] [µM],GI50 [6] [µM],GI50 [9] [µM],GI50 [5] [µM]
OCC1OC(NO)C(O)C(O)C1O (centres undefined),> 100,> 100,> 100,> 100,> 100,> 100,> 100,> 100,> 100,–,–,–,–,–,–,–,–,–,–,–
COc1ccc(C2[C@@H](Cl)C(=O)N2c2ccc(OC)cc2)cc1 (some centres undefined),–,> 100,> 100,> 100,> 100,> 100,> 100,> 100,> 100,–,–,–,–,–,–,–,–,–,–,–
CCCCCCCN(CCCCCCC)C(=N)c1ccc(OC)c2ccccc12,2.79,3.16,3.17,2.83,–,–,3.01,2.81,–,1.3,1.49,1.62,1.43,1.46,3.05,1.3,1.32,–,–,–
O=S1(=O)CC#CC[C@@H](CO)[C@@H](CO)CC#CC1,> 100,–,> 100,–,> 100,> 100,> 100,> 100,> 100,–,–,–,–,–,–,–,–,–,–,–
c1ccc2cc(Cn3c(-c4cccc5ccccc45)[n+](Cc4ccc5ccccc5c4)c4c5ccccc5c5ccccc5c43)ccc2c1,2.45,–,–,–,–,1.5,–,–,1.2,0.387,–,–,–,1.77,4.71,–,–,0.176,0.285,–
CC1=NN(c2ccccc2)C(=O)C1N=Nc1ccc(Br)cc1C (centres undefined),> 100,> 100,> 100,> 100,> 100,> 100,> 100,> 100,> 100,–,–,–,–,–,–,–,–,–,–,–
C=C1[C@H](O)C[C@@H](C(C)C(O)CC=C(C)C)[C@@H](O)[C@@H]2C(C)=CC[C@@H]12 (some centres undefined),> 100,> 100,> 100,> 100,> 100,> 100,–,> 100,> 100,> 100,> 100,> 100,> 100,> 100,> 100,–,> 100,> 100,> 100,> 100
CC(C)(C)c1cc([Si](C)(C)C)c(C#N)c([Si](C)(C)C)c1,> 100,> 100,> 100,> 100,> 100,> 100,> 100,> 100,> 100,–,–,–,–,–,–,–,–,–,–,–
O=c1[nH]c(C2CCCCC2)nc2ccc(Cl)cc12,–,> 100,> 100,–,> 100,> 100,> 100,> 100,> 100,–,–,–,–,–,–,–,–,–,–,–
CCn1c(C)nc([N+](=O)[O-])c1Sc1ncc[nH]1,> 100,> 100,> 100,> 100,> 100,> 100,–,> 100,> 100,–,–,–,–,–,–,–,–,–,–,–
O=C(Nc1cccc(Cl)c1)Nc1cc(C(F)(F)F)ccc1Cl,9.23,11.7,29.6,–,11.3,7.48,3.95,7.16,6.98,2.72,3.55,4.19,–,2.64,7.12,1.12,2.54,2.54,2.65,3.03
Cc1ccccc1C1SCc2nc3ccccc3n21 (centres undefined),–,> 100,> 100,> 100,–,> 100,> 100,> 100,> 100,–,–,–,–,–,–,–,–,–,–,–
CC1O[C@@H]2CCCCC(=O)[C@]2(C)[C@H]1C (some centres undefined),> 100,–,> 100,> 100,> 100,> 100,> 100,> 100,> 100,–,–,–,–,–,–,–,–,–,–,–
O=C(NNC(=O)/C(=C/c1cccc([N+](=O)[O-])c1)NC(=O)c1ccccc1)Nc1ccc(Cl)cc1,29.6,29.6,30.8,40.2,27.8,26.2,25.6,31.8,24.7,–,–,–,–,–,–,–,–,–,–,–
O/N=C1/C(=C/c2ccc(Br)cc2)CCCC1C(NO)c1ccc(Br)cc1 (centres undefined),–,34.1,34.4,–,35.4,31.3,31.1,31.2,38.3,–,–,–,–,–,–,–,–,–,–,–
[N-]=[N+]=NCCCn1c2c(c3ccccc3c1=O)C(=O)c1cc3c(cc1-2)OCO3,> 100,> 100,–,–,–,> 100,> 100,> 100,> 100,17.6,81.7,–,–,90.9,> 100,> 100,24.1,29.8,> 100,–
Cc1c2cc[n+](C)cc2c(C)c2c1[nH]c1ccc(OC(C)(C)C)cc12,> 100,> 100,> 100,> 100,> 100,> 100,> 100,> 100,> 100,–,–,–,–,–,–,–,–,–,–,–
Clc1cc2ns[s+]c2cc1Cl,> 81.7,> 100,> 100,> 100,> 100,> 100,> 100,> 100,> 100,–,–,–,–,–,–,–,–,–,–,–
Cc1cc(NCCCCCCCCNc2cc(C)nc3cc(N(C)C)ccc23)c2ccc(N(C)C)cc2n1,29,26.9,4.48,72.1,–,14,28.7,32.7,19.6,–,–,–,–,–,–,–,–,–,–,–
CN1C(=O)CC(CC(=O)C2CCCCC2=O)CC1=O (centres undefined),> 100,> 100,> 100,> 100,> 100,> 100,> 100,> 100,> 100,–,–,–,–,–,–,–,–,–,–,–

Structure (SMILES),TGI [1] [µM],TGI [2] [µM],TGI [3] [µM],TGI [4] [µM],TGI [5] [µM],TGI [6] [µM],TGI [7] [µM],TGI [8] [µM],TGI [9] [µM],GI50 [1] [µM],GI50 [2] [µM],GI50 [3] [µM],GI50 [4] [µM],GI50 [10] [µM],TGI [10] [µM],GI50 [7] [µM],GI50 [8] [µM],GI50 [6] [µM],GI50 [9] [µM],GI50 [5] [µM]
Cc1cc(S(=O)(=O)Nc2nc3ccccc3s2)c(SCc2ccccc2)cc1Cl,> 100,73.9,52.7,17.6,–,28.4,49.7,27.8,61.9,31.6,27.1,21.9,4.12,15.8,35.9,23.8,14,15.1,18.8,–
COc1cccc(/C=C/C(=O)c2cc3c(N)c(C(=O)Nc4ccccc4)sc3nc2C)c1,2.44,5.82,6.45,1.91,3.42,1.58,1.71,1.86,2.23,1.09,1.47,1.72,0.933,–,–,0.837,0.971,0.838,0.988,1.21
O=C(C#Cc1ccccc1)N1CCCCC1,> 100,> 100,> 100,> 100,> 100,67.5,–,> 100,> 100,–,–,–,–,–,–,–,–,–,–,–
COc1ccc(NC(=O)CC2SC(=Nc3ccc(Cl)cc3C)NC2=O)c([N+](=O)[O-])c1 (centres undefined),–,> 100,> 100,> 100,> 100,> 100,> 100,> 100,–,–,–,–,–,–,–,–,–,–,–,–
COC(=O)C1(N2CCOCC2)CCC([C@@H](c2ccccc2)C(C)[N+](=O)[O-])C1 (some centres undefined),> 100,> 100,> 100,–,> 100,–,–,> 100,> 100,–,–,–,–,–,> 100,–,–,–,–,–
CCCCCCCCCCCCCC(=O)OCC1OC(=O)C(O)C1O (centres undefined),> 100,> 100,> 100,> 100,> 100,> 100,–,> 100,> 100,–,–,–,–,–,–,–,–,–,–,–
CC#CC#C/C=C1/C=CC2(CCCCO2)O1 (centres undefined),–,> 100,> 100,> 100,> 100,> 100,–,–,> 100,–,–,–,–,–,> 100,–,–,–,–,–
COC(=O)/C(=C1\OC(=O)C(c2ccc(Cl)cc2)=C1O)c1ccc(Cl)cc1,41.4,> 100,> 100,57.9,> 100,50.4,63,79.2,67.8,–,–,–,–,–,–,–,–,–,–,–
O=C1/C(=C/c2ccc(C(=O)O)cc2)CNC/C1=C\c1ccc(C(=O)O)cc1,> 100,> 100,> 100,–,> 100,> 100,> 100,> 100,> 100,–,–,–,–,–,–,–,–,–,–,–
Nc1ncnc2c1ncn2Cc1ccc(CCl)cc1,> 100,57.9,> 100,28.9,–,> 100,62.2,34.8,37.2,34.5,21.8,21.7,14.3,18.7,44.5,20.3,19.4,36.2,13.6,–
Clc1ccc(Nc2nnc(COc3ccccc3)c3ccccc23)cc1,7.74,12.9,7.23,–,4.25,4.83,4.98,25,7.72,2.51,2.23,2.84,–,2.62,16.6,1.01,2.35,1.07,2.65,0.429
COc1cc(OC)c(OC)cc1/C=C/c1ccc2ccccc2n1,> 10,> 10,> 10,> 10,> 10,> 10,–,> 10,> 10,–,–,–,–,–,> 10,–,–,–,–,–
COc1cc(/C=C/[N+](=O)[O-])cc(OC)c1,10.4,14.9,7.29,–,10.4,3.64,3.27,3.72,10.5,2.93,3.62,2.75,–,3.02,13.6,1.75,1.76,1.84,3.08,3.08
O=S1c2ccccc2N=C(c2cccs2)CC1c1ccccc1O (centres undefined),> 100,> 100,> 100,> 100,> 100,–,> 100,> 100,> 100,–,–,–,–,–,–,–,–,–,–,–
C/C(COc1ccccc1)=N\NC(N)=S,> 100,> 100,> 100,> 100,> 100,> 100,> 100,> 100,> 100,–,–,–,–,–,–,–,–,–,–,–
NC1=NN(c2ccccc2)C(=O)C1/C(=N\NC(=O)c1cc2ccccc2cc1O)C(=O)Nc1ccc(Cl)c(Cl)c1 (centres undefined),> 100,> 100,> 100,> 100,> 100,> 100,> 100,> 100,> 100,–,–,–,–,–,–,–,–,–,–,–
CCN(CC(O)COc1ccc2c(c1)[n+]([O-])nc(N)[n+]2[O-])C(C)=O (centres undefined),> 100,> 100,> 100,> 100,> 100,> 100,–,> 100,> 100,–,–,–,–,–,> 100,–,–,–,–,–
CS(=O)(=O)Nc1cc(-c2ccc3ncnc(Nc4ccc(OCc5ccccn5)c(Cl)c4)c3c2)cnc1Cl,> 100,> 100,3.92,3.66,38.5,> 100,–,> 100,2.18,0.646,0.429,0.256,1.09,7.07,> 100,–,1.02,0.648,0.572,0.456
O=C(O)[C@@H](Cc1ccccc1)NS(=O)(=O)c1ccc(-c2ccccc2)cc1,> 100,> 100,> 100,> 100,> 100,> 100,–,> 100,> 100,> 100,> 100,> 100,> 100,> 100,> 100,–,> 100,> 100,> 100,> 100
